Measurements taken from US5304369A, “Chlorohexidine adduct and method of preparing same” (Ivoclar AG, priority 1991, dated 1994).
Values after ≈ are worked out from the molar mass of the structure shown. Read-outs that look alike come from different tables or passages of the source.

Columns and labels:
[1] = test system: Streptococcus mutans; experiment: Agar diffusion test with Streptococcus mutans (inhibiting zone diameters); assay type: cell-based; conditions: for Antibacterial action (in words): 0.003 wt.-%; for Bactericidal effectiveness (in words): concentrations smaller than or equal to 0.01 wt.-%
Method: For this purpose, culture suspensions of Streptococcus mutans were added to a liquid Agar comprising yeast extract and dextrose. After the Agar plates had solidified, a hole of 10 mm diameter was cut out, into which 0.1 ml of the solution to be tested was poured in each case. After 24 hours of incubation at 37° C., the diameters of the inhibiting zones were measured for each sample, which were duplicated in each case.

[2] = background, cited from earlier work
[3] = Solubility in common solvents and reactive diluents; assay type: physicochemical
[4] = Side-effects in use (bitter taste, discolorations, irritations of the mucosa)
[5] = higher concentrations; cited from earlier work
[6] = test system: Streptococcus mutans; conditions: cited from earlier work
[7] = 0.03 wt. %, 0.1 ml in 10 mm hole, 24 hours, 37° C.

[H]/N=C(\N/C(=N/[H])NCCCCCCNC(=N)NC(=N)Nc1ccc(Cl)cc1)Nc1ccc(Cl)cc1 [Solution A]
zone of inhibition at 0.003 % ([1]; Streptococcus mutans, 24 h, 0.003 wt. %, 0.1 ml in 10 mm hole, 24 hours, 37° C., * = Not effective, read-out: Inhibiting zone diameter): 11 mm
zone of inhibition at 0.01 % ([1]; Streptococcus mutans, 24 h, 0.01 wt. %, 0.1 ml in 10 mm hole, 24 hours, 37° C., read-out: Inhibiting zone diameter): 13 mm
zone of inhibition at 0.03 % ([1]; Streptococcus mutans, 24 h, 0.03 wt. %, 0.1 ml in 10 mm hole, 24 hours, 37° C., read-out: Inhibiting zone diameter): 17 mm
Solubility (in words) ([2]; listed as digluconate): water-soluble

[F][Sn][F] [Solution C, stannous difluoride]
Inhibiting zone diameter ([1]; 0.003 wt. %, 0.1 ml in 10 mm hole, 24 hours, 37° C., * = Not effective): 10 mm
Antibacterial action (in words) [1]: Not effective
Antibacterial action (in words) ([1]; listed as stannous difluoride): an antibacterial action can no longer be detected
Inhibiting zone diameter ([1]; 0.01 wt. %, 0.1 ml in 10 mm hole, 24 hours, 37° C.): 11 mm
Inhibiting zone diameter [1, 7]: 20 mm
Antibacterial effectiveness (in words) ([1]; 0.03 wt.-%): even stronger action

[H]/N=C(\N/C(=N/[H])NCCCCCCNC(=N)NC(=N)Nc1ccc(Cl)cc1)Nc1ccc(Cl)cc1 [chlorohexidine adduct, chlorohexidine hexahydrofluoride]
Solubility ([3]; Acetone): 0.03 wt. %
Solubility ([3]; Decandiol dimethacrylate (D3 MA)): < 0.005 wt. %
Solubility ([3]; Ethanol): 0.005 wt. %
Solubility ([3]; Ethyl acetate): 0.02 wt. %
Solubility ([3]; Triethylene glycol dimethacrylate (SR-205)): < 0.005 wt. %
Solubility ([3]; Water (pH value 2 to 9.7), read-out: Solubility): 300 µg/mL (≈ 594 µM)
Solubility (in words) ([3]; common solvents): quite a low solubility
Inhibiting zone diameter ([1]; 0.003 wt. %, 0.1 ml in 10 mm hole, 24 hours, 37° C., * = Not effective, listed as Solution B): 12 mm
Antibacterial effectiveness (in words) ([1]; 0.01 to 0.003 wt.-%): still very high
Inhibiting zone diameter ([1]; 0.01 wt. %, 0.1 ml in 10 mm hole, 24 hours, 37° C., listed as Solution B): 15 mm
Inhibiting zone diameter [1, 7]: 17 mm
Antibacterial effectiveness (in words) ([1]; 0.03 wt.-%): comparable with that of chlorohexidine gluconate
Antibacterial effectiveness (in words) ([1]; 0.03 wt.-%, listed as adduct according to the invention): completely comparable
Bactericidal effectiveness (in words) [1]: clearly superior to stannous difluoride
Unwanted side-effects (bitter taste, discolorations of tooth materials, irritations of the mucosa) [4]: no unwanted side-effects

[H]/N=C(\N/C(=N/[H])NCCCCCCNC(=N)NC(=N)Nc1ccc(Cl)cc1)Nc1ccc(Cl)cc1 [chlorohexidine, 1,6-bis-(N^5-p-chlorophenyl-N'-diguanido)-hexane]
Bactericidal effectiveness (in words) [1]: clearly exceeded
Dis-colorations of the tongue, teeth, prostheses and fillings [5]: can lead to unwanted dis-colorations
Effectiveness against bacteria of the type Streptococcus mutans (in words) [6]: effective
Bactericidal effect vis-a-vis Streptococcus mutans (in words) ([6]; small concentrations): greatly weakened

[H]/N=C(\N/C(=N/[H])NCCCCCCNC(=N)NC(=N)Nc1ccc(Cl)cc1)Nc1ccc(Cl)cc1 [diacetate]
Solubility (in words) [2]: sparingly soluble
